According to PubChem BioAssay (NCI):
Where “and” joins values, the source holds several entries; their conditions need not be identical. Equal values may be shown once.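 Values below derive from 48-hour exposures of cells grown in 96-well plates, with endpoints linearly interpolated between the two concentrations bracketing the appropriate inhibition level. GI50 is the concentration that inhibits growth by half. TGI is the concentration that stops growth completely.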

How the values were obtained:
Assay in all cases: NCI-60 cell line screen, 48 h
[1] = tested on: MDA-MB-435
[2] = tested on: MDA-MB-231 breast
[3] = tested on: HOP-62 NSCLC
[4] = tested on: UACC-62 melanoma
[5] = tested on: OVCAR-4 ovarian
[6] = tested on: SK-OV-3 ovarian
[7] = tested on: LOX IMVI melanoma
[8] = tested on: U251 CNS
[9] = tested on: SF-295 CNS
[10] = tested on: OVCAR-3 ovarian

SMILES	GI50 [1]	TGI [1]	GI50 [2]	TGI [2]	GI50 [3]	TGI [3]	GI50 [4]	TGI [4]	GI50 [5]	TGI [5]	GI50 [6]	TGI [6]	GI50 [7]	TGI [7]	GI50 [8]	TGI [8]	GI50 [9]	TGI [9]	GI50 [10]	TGI [10]
CNCCNc1c2c(c(NCCNC)c3[nH]ccc13)C(=O)c1ccccc1C2=O	0.255 µM	1.47 µM	0.1 µM	0.33 µM	135 nM	0.543 µM	0.231 µM	1.05 µM	1660 nM	5.11 µM	5.67 µM	13.3 µM	< 0.0231 µM	0.0717 µM	0.0587 µM	0.615 µM	139 nM	0.901 µM	174 nM	0.887 µM
O=C(Nc1ccc2[nH]c(=S)sc2c1)Nc1ccccc1F	23.1 µM	> 100 µM	23.1 µM	> 100 µM	37200 nM	> 100 µM	18.5 µM	> 100 µM	21000 nM	> 100 µM	> 100 µM	> 100 µM	16.3 µM	> 100 µM	57.5 µM	> 100 µM	28800 nM	> 100 µM	34800 nM	> 100 µM
COc1ccc(-n2cc(-c3cc(OC)c(OC)c(OC)c3)nc2SCc2ccccc2)cc1OC	> 100 µM	> 100 µM	> 63.6 µM	> 100 µM	> 100000 nM	> 100 µM	44.9 µM	> 100 µM	> 81400 nM	> 100 µM	> 100 µM	> 100 µM	59.3 µM	> 100 µM	50 µM	> 100 µM	> 100000 nM	> 100 µM	> 100000 nM	> 100 µM
COc1ccc(C(=O)/C=C/c2ccc3c(c2)OCO3)c(OCc2ccccc2)c1		> 100 µM		> 100 µM		> 100 µM		> 100 µM		> 61 µM		> 100 µM		> 100 µM		> 100 µM		> 100 µM		> 100 µM
COc1cccc2c1C(=O)c1c(O)c3c(c(O)c1C2=O)C[C@@](O)(C(=O)CO)C[C@@H]3O[C@H]1C[C@H](N)[C@@H](O)[C@H](C)O1	0.465 µM	1.29 µM	0.595 µM	12.1 µM	160 nM	2.37 µM	0.0847 µM	0.498 µM	546 nM	5.87 µM	0.318 µM	31.6 µM	0.0826 µM	2.57 µM		16.4 µM	158 nM	1.54 µM	613 nM	13.4 µM
NC1=C(c2nc(-c3ccccc3)cs2)C(c2ccc(Br)cc2)c2c(c3ccccc3oc2=O)O1 (stereo not drawn)	> 150 µg/mL	> 150 µg/mL	39.2 µg/mL	> 150 µg/mL	116 µg/mL	> 150 µg/mL	52.1 µg/mL	> 150 µg/mL	34.3 µg/mL	99.9 µg/mL	60.1 µg/mL	> 150 µg/mL	> 150 µg/mL	> 150 µg/mL	48.2 µg/mL	> 150 µg/mL	> 150 µg/mL	> 150 µg/mL	> 150 µg/mL	> 150 µg/mL
CN(C)CCCN1c2ccccc2C(C)(C)c2ccccc21		27.4 µM		27.8 µM		31.5 µM		25.8 µM		28.2 µM		29.1 µM		28.4 µM		24.9 µM		32.9 µM		28.9 µM
COc1ccccc1N1CCN(CCc2c[nH]c3cc4c(cc23)OCO4)CC1	14 µM	52.3 µM	21.4 µM	77.7 µM	28600 nM	> 100 µM	32.2 µM	> 100 µM	37700 nM	> 100 µM	81.6 µM	> 100 µM	11.6 µM	35.7 µM	32.2 µM	> 100 µM	646 nM	27.7 µM	30200 nM	> 100 µM
COc1cc(/C=N/NC(=O)c2cnn3c2NC(c2ccccc2)C3)ccc1Oc1ccccc1 (stereo not drawn)	0.293 µM	1.43 µM	1.66 µM	5.03 µM	1180 nM	4.34 µM	0.888 µM	7.3 µM	1410 nM	3.78 µM	1.47 µM	10.6 µM	0.736 µM	2.36 µM	1.31 µM	3.59 µM	522 nM	2.08 µM	346 nM	1.31 µM
COc1ccc(NC(=O)COCCOCCNC[C@@H]2C(=O)O[C@H]3[C@H]2CC/C(COC(=O)OC/C2=C/CC[C@@]4(C)O[C@H]4[C@H]4OC(=O)[C@@H](CN(C)C)[C@@H]4CC2)=C\CC[C@@]2(C)O[C@@H]32)c(O)c1C(N)=O	5.19 µM	12.3 µM	5.03 µM	11.3 µM	39900 nM	> 50 µM	5.11 µM	11.4 µM	3190 nM	10.2 µM	40.6 µM	> 50 µM	5.31 µM	11.4 µM	8.87 µM	18 µM	> 50000 nM	> 50 µM	1470 nM	5.26 µM
COc1cccc(OCCCN)c1-c1cc(Nc2cnc(C#N)cn2)n[nH]1	0.00423 µM	1.23 µM	0.933 µM	11.9 µM	13.6 nM and 30.3 nM	13 µM	0.0231 µM		7.93 nM and < 24.9 nM	14.9 µM	0.00474 µM	7.02 µM	0.0166 µM and 0.0254 µM	9.07 µM	0.0759 µM and 0.0569 µM	14.4 µM	3.7 nM	13.4 µM	7.61 nM and < 15.5 nM	11.4 µM
Cc1cc(Cc2cc(C)cc(C(C)(C)C)c2O)c(O)c(Cc2cc(C)cc(C(C)(C)C)c2O)c1		8.57 µM		4.25 µM		7.94 µM		4.53 µM		11.7 µM		10.9 µM		10.9 µM		10.3 µM		10.1 µM		10.4 µM
Cc1cc(=O)[nH]c2cc3c(c4c(n3Cc3ccc(Cl)cc3Cl)CC(C)(C)CC4=O)c(O)c12	57.4 µM	> 100 µM	> 100 µM	> 100 µM	77700 nM	> 100 µM	> 100 µM	> 100 µM	> 100000 nM	> 100 µM	> 100 µM	> 100 µM	> 100 µM	> 100 µM	62.6 µM	> 100 µM	16400 nM	63.5 µM	> 100000 nM	> 100 µM
